Laboratory results from patent publication US9040528B2, “Chemical compounds 542” (AstraZeneca AB, priority 2008, dated 2015).

molecular target: Escherichia coli DNA gyrase A/B tetramer (Escherichia coli (strain K12), UniProt P0AES4+P0AES6); assay: DNA gyrase supercoiling activity fluorescence polarisation assay; assay type: biochemical; conditions: not given
Description: DNA Gyrase Supercoiling Activity Fluorescence Polarisation Assay
The supercoiling reactions may be quenched by the addition of 10 microliters/well of 40 nM oligodeoxynucleotide probe in 3× triplex-forming buffer consisting of 150 mM NaCl, and 150 mM sodium acetate at pH 3.5. The oligodeoxynucleotide probe may be 5′-BODIPY-FL-labeled […]. After 60 minutes, the fluorescence anisotropy of the BODIPY-FL may be measured in a Tecan Ultra plate reader, using 485 nm excitation and 535 nm emission filters equipped with polarizers. The IC50 may be determined by nonlinear regression using two control reactions. The first contains no test compound but 0.8% DMSO (100% activity) while the second control reaction contains 5 μM Ciprofloxacin and 0.8% DMSO (0% activity).

SMILES | IC50 [nM]
C[C@@H]1CN2c3c(cc4c(N5CCCCC5)noc4c3F)CC3(C(=O)NC(=O)NC3=O)[C@H]2[C@H](C)O1 (relative stereo) [Example 21] | 2400

same assay, conditions: 5 nM enzyme, relaxed plasmid, 0.3 mM ATP, ambient temperature; read-out: E. coli DNA gyrase supercoiling IC50

SMILES | IC50 [nM]
C[C@@H]1CN2c3c(cc4c(-c5ccccn5)noc4c3F)CC3(C(=O)NC(=O)NC3=O)[C@H]2[C@H](C)O1 (relative stereo) [Example 5, (2R,4S,4aS)-rel-11-fluoro-2,4-dimethyl-8-pyridin-2-yl-1,2,4,4a-tetrahydro-2′H,6H-spiro[isoxazolo[4,5-g][1,4]oxazino[4,3-a]quinoline-5,5′-pyrimidine]-2′,4′,6′(1′H,3′H)-trione] | 200
CC(=O)Nc1noc2c(F)c3c(cc12)CC1(C(=O)NC(=O)NC1=O)[C@H]1[C@H](C)O[C@H](C)CN31 (relative stereo) [Example 6, N-[(2R,4S,4aS)-rel-11-fluoro-2,4-dimethyl-2′,4′,6′-trioxo-1,1′,2,3′,4,4′,4a,6′-octahydro-2′H,6H-spiro[isoxazolo[4,5-g][1,4]oxazino[4,3-a]quinoline-5,5′-pyrimidin]-8-yl]acetamide] | 800
Cc1noc2c(Cl)c3c(cc12)CC1(C(=O)NC(=O)NC1=O)[C@H]1[C@H](C)O[C@H](C)CN31 (relative stereo) [Example 7, (2R,4S,4aS)-rel-11-chloro-2,4,8-trimethyl-1,2,4,4a-tetrahydro-2′H,6H-spiro[1,4-oxazino[4,3-a][1,2]oxazolo[4,5-g]quinoline-5,5′-pyrimidine]-2′,4′,6′(1′H,3′H)-trione] | 400
CC(=O)N1CCN(c2noc3c(F)c4c(cc23)CC2(C(=O)NC(=O)NC2=O)[C@H]2[C@H](C)O[C@H](C)CN42)CC1 (relative stereo) [Example 8, (2R,4S,4aS)-rel-8-(4-acetylpiperazin-1-yl)-11-fluoro-2,4-dimethyl-1,2,4,4a-tetrahydro-2′H,6H-spiro[isoxazolo[4,5-g][1,4]oxazino[4,3-a]quinoline-5,5′-pyrimidine]-2′,4′,6′(1′H,3′H)-trione] | 8300
C[C@@H]1CN2c3c(cc4c(NCc5nccs5)noc4c3F)CC3(C(=O)NC(=O)NC3=O)[C@H]2[C@H](C)O1 (relative stereo) [Example 10, (2R,4S,4aS)-rel-11-fluoro-2,4-dimethyl-8-[(1,3-thiazol-2-ylmethyl)amino]-1,2,4,4a-tetrahydro-2′H,6H-spiro[1,4-oxazino[4,3-a][1,2]oxazolo[4,5-g]quinoline-5,5′-pyrimidine]-2′,4′,6′(1′H,3′H)-trione] | 1900
C[C@@H]1CN2c3c(cc4c(NCc5c[nH]cn5)noc4c3F)CC3(C(=O)NC(=O)NC3=O)[C@H]2[C@H](C)O1 (relative stereo) [Example 11, (2R,4S,4aS)-rel-11-fluoro-8-[(1H-imidazol-4-ylmethyl)amino]-2,4-dimethyl-1,2,4,4a-tetrahydro-2′H,6H-spiro[1,4-oxazino[4,3-a][1,2]oxazolo[4,5-g]quinoline-5,5′-pyrimidine]-2′,4′,6′(1′H,3′H)-trione] | 800
C[C@@H]1CN2c3c(cc4c(NCc5cnn(C)c5)noc4c3F)CC3(C(=O)NC(=O)NC3=O)[C@H]2[C@H](C)O1 (relative stereo) [Example 12, (2R,4S,4aS)-rel-11-fluoro-2,4-dimethyl-8-{[(1-methyl-1H-pyrazol-4-yl)methyl]amino}-1,2,4,4a-tetrahydro-2′H,6H-spiro[1,4-oxazino[4,3-a][1,2]oxazolo[4,5-g]quinoline-5,5′-pyrimidine]-2′,4′,6′(1′H,3′H)-trione] | 1200
Cc1cc(CNc2noc3c(F)c4c(cc23)CC2(C(=O)NC(=O)NC2=O)[C@H]2[C@H](C)O[C@H](C)CN42)no1 (relative stereo) [Example 13, (2R,4S,4aS)-rel-11-fluoro-2,4-dimethyl-8-{[(5-methyl-1,2-oxazol-3-yl)methyl]amino}-1,2,4,4a-tetrahydro-2′H,6H-spiro[1,4-oxazino[4,3-a][1,2]oxazolo[4,5-g]quinoline-5,5′-pyrimidine]-2′,4′,6′(1′H,3′H)-trione] | 1700
C[C@@H]1CN2c3c(cc4c(NCc5cccnc5)noc4c3F)CC3(C(=O)NC(=O)NC3=O)[C@H]2[C@H](C)O1 (relative stereo) [Example 15, (2R,4S,4aS)-rel-11-fluoro-2,4-dimethyl-8-[(pyridin-3-ylmethyl)amino]-1,2,4,4a-tetrahydro-2′H,6H-spiro[1,4-oxazino[4,3-a][1,2]oxazolo[4,5-g]quinoline-5,5′-pyrimidine]-2′,4′,6′(1′H,3′H)-trione] | 1000
C[C@@H]1CN2c3c(cc4c(NCc5ccncc5)noc4c3F)CC3(C(=O)NC(=O)NC3=O)[C@H]2[C@H](C)O1 (relative stereo) [Example 16, (2R,4S,4aS)-rel-11-fluoro-2,4-dimethyl-8-[(pyridin-4-ylmethyl)amino]-1,2,4,4a-tetrahydro-2′H,6H-spiro[1,4-oxazino[4,3-a][1,2]oxazolo[4,5-g]quinoline-5,5′-pyrimidine]-2′,4′,6′(1′H,3′H)-trione] | 2400
C[C@@H]1CN2c3c(cc4c(NCC5CC5)noc4c3F)CC3(C(=O)NC(=O)NC3=O)[C@H]2[C@H](C)O1 (relative stereo) [Example 17, (2R,4S,4aS)-rel-8-[(cyclopropylmethyl)amino]-11-fluoro-2,4-dimethyl-1,2,4,4a-tetrahydro-2′H,6H-spiro[1,4-oxazino[4,3-a][1,2]oxazolo[4,5-g]quinoline-5,5′-pyrimidine]-2′,4′,6′(1′H,3′H)-trione] | 1400
C[C@@H]1CN2c3c(cc4c(NCC5CCCCC5)noc4c3F)CC3(C(=O)NC(=O)NC3=O)[C@H]2[C@H](C)O1 (relative stereo) [Example 18, (2R,4S,4aS)-rel-8-[(cyclohexylmethyl)amino]-11-fluoro-2,4-dimethyl-1,2,4,4a-tetrahydro-2′H,6H-spiro[1,4-oxazino[4,3-a][1,2]oxazolo[4,5-g]quinoline-5,5′-pyrimidine]-2′,4′,6′(1′H,3′H)-trione] | 2900
C[C@@H]1CN2c3c(cc4c(NCC5CCOCC5)noc4c3F)CC3(C(=O)NC(=O)NC3=O)[C@H]2[C@H](C)O1 (relative stereo) [Example 19, (2R,4S,4aS)-rel-11-fluoro-2,4-dimethyl-8-[(tetrahydro-2H-pyran-4-ylmethyl)amino]-1,2,4,4a-tetrahydro-2′H,6H-spiro[1,4-oxazino[4,3-a][1,2]oxazolo[4,5-]quinoline-5,5′-pyrimidine]-2′,4′,6′(1′H,3′H)-trione] | 2900
C[C@@H]1CN2c3c(cc4c(N5CCN(C(=O)OC(C)(C)C)CC5)noc4c3F)CC3(C(=O)NC(=O)NC3=O)[C@H]2[C@H](C)O1 (relative stereo) [Example 20, tert-butyl 4-[(2R,4S,4aS)-rel-11-fluoro-2,4-dimethyl-2′,4′,6′-trioxo-1,1′,2,3′,4,4′,4a,6′-octahydro-2′H,6H-spiro[isoxazolo[4,5-g][1,4]oxazino[4,3-a]quinoline-5,5′-pyrimidin]-8-yl]piperazine-1-carboxylate] | 20000
C[C@@H]1CN2c3c(cc4c(N5CCOCC5)noc4c3F)CC3(C(=O)NC(=O)NC3=O)[C@H]2[C@H](C)O1 (relative stereo) [Example 22, (2R,4S,4aS)-rel-11-fluoro-2,4-dimethyl-8-(morpholin-4-yl)-1,2,4,4a-tetrahydro-2′H,6H-spiro[isoxazolo[4,5-g][1,4]oxazino[4,3-a]quinoline-5,5′-pyrimidine]-2′,4′,6′(1′H,3′H)-trione] | 2600
CCN(CC)c1noc2c(F)c3c(cc12)CC1(C(=O)NC(=O)NC1=O)[C@H]1[C@H](C)O[C@H](C)CN31 (relative stereo) [Example 23, (2R,4S,4aS)-rel-8-(diethylamino)-11-fluoro-2,4-dimethyl-1,2,4,4a-tetrahydro-2′H,6H-spiro[isoxazolo[4,5-g][1,4]oxazino[4,3-a]quinoline-5,5′-pyrimidine]-2′,4′,6′(1′H,3′H)-trione] | 4300
C[C@@H]1CN2c3c(cc4c(N(C)C)noc4c3F)CC3(C(=O)NC(=O)NC3=O)[C@H]2[C@H](C)O1 (relative stereo) [Example 24, (2R,4S,4aS)-rel-8-(dimethylamino)-11-fluoro-2,4-dimethyl-1,2,4,4a-tetrahydro-2′H,6H-spiro[isoxazolo[4,5-g][1,4]oxazino[4,3-a]quinoline-5,5′-pyrimidine]-2′,4′,6′(1′H,3′H)-trione] | 300
C[C@@H]1CN2c3c(cc4c(N5CCCC5)noc4c3F)CC3(C(=O)NC(=O)NC3=O)[C@H]2[C@H](C)O1 (relative stereo) [Example 25, (2R,4S,4aS)-rel-11-fluoro-2,4-dimethyl-8-(pyrrolidin-1-yl)-1,2,4,4a-tetrahydro-2′H,6H-spiro[isoxazolo[4,5-g][1,4]oxazino[4,3-a]quinoline-5,5′-pyrimidine]-2′,4′,6′(1′H,3′H)-trione] | 1500
C[C@@H]1CN2c3c(cc4c(N5CCCCCC5)noc4c3F)CC3(C(=O)NC(=O)NC3=O)[C@H]2[C@H](C)O1 (relative stereo) [Example 26, (2R,4S,4aS)-rel-8-(azepan-1-yl)-11-fluoro-2,4-dimethyl-1,2,4,4a-tetrahydro-2′H,6H-spiro[isoxazolo[4,5-g][1,4]oxazino[4,3-a]quinoline-5,5′-pyrimidine]-2′,4′,6′(1′H,3′H)-trione] | 3700
Cc1cc(C(F)(F)F)nn1-c1noc2c(F)c3c(cc12)CC1(C(=O)NC(=O)NC1=O)[C@H]1[C@H](C)O[C@H](C)CN31 (relative stereo) [Example 27, (2R,4S,4aS)-rel-11-fluoro-2,4-dimethyl-8-[5-methyl-3-(trifluoromethyl)-1H-pyrazol-1-yl]-1,2,4,4a-tetrahydro-2′H,6H-spiro[isoxazolo[4,5-g][1,4]oxazino[4,3-a]quinoline-5,5′-pyrimidine]-2′,4′,6′(1′H,3′H)-trione] | 7100
